Measured values reported in patent US20120220581A1, “IMIDAZO[1,2-b]PYRIDAZINE DERIVATIVES AND THEIR USE AS PDE10 INHIBITORS” (Janssen-Cilag, S.A., priority 2009, published 2012).
Read-outs that look alike come from different tables or passages of the source.

What was measured:
[1] = target: PDE1B1 (Homo sapiens, UniProt Q01064); test: In vitro PDE selectivity assay (SPA), PDE1B1; format: biochemical; settings: hPDE1B1; read-out: PDE 1B1 (expressed as pIC50) (converted)
[2] = target: PDE4D3 (Homo sapiens, UniProt Q08499); test: In vitro PDE selectivity assay (SPA), PDE4D3; format: biochemical; settings: hPDE4D3; read-out: PDE 4D3 (expressed as pIC50) (converted)
Procedure, shortened: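 Inhibition of each PDE isoform was measured by scintillation proximity assay with ³H-cyclic nucleotide substrate, using incubation buffer, substrate concentration, incubation time and stop solution adapted per isoform. Compounds were tested in dose-response against 1% DMSO controls and enzyme-free blanks. IC50 came from a least-squares fit of blank-subtracted % of control versus concentration.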

[3] = system: apomorphine-induced stereotypy in rats; test: Apomorphine-induced stereotypy in rats (APO); format: in vivo; settings: Rattus norvegicus; dose at which 50% of the tested animals show the effect; ≧: active in 30% of the animals at the indicated dose; ≦: active in 60%
Method: Apomorphine (1.0 mg/kg, i.v.)-induced stereotypy (compulsive sniffing, licking, chewing) was scored every 5 min over the first hour after injection of apomorphine, following a 1 hour interval pre-treatment with the test compound. The score system was: (3) pronounced, (2) moderate, (1) slight, and (0) absent.

[4] = target: T1, PDE10 (Rattus norvegicus, UniProt Q9QYJ6); test: PDE10 occupancy ([3H]-MP-10, striatum); format: in vivo; settings: rat; for ED50: dose response; for receptor occupancy at 10 mg/kg: single dose 10 mg/kg, subcutaneous, read-out: SD sc % occupancy at 10 mg/kg
T1 construct: from tissue; host or cells: rat brain sections, striatum (in vivo dosing, ex vivo autoradiography)
T1 sequence (Q9QYJ6 1-794): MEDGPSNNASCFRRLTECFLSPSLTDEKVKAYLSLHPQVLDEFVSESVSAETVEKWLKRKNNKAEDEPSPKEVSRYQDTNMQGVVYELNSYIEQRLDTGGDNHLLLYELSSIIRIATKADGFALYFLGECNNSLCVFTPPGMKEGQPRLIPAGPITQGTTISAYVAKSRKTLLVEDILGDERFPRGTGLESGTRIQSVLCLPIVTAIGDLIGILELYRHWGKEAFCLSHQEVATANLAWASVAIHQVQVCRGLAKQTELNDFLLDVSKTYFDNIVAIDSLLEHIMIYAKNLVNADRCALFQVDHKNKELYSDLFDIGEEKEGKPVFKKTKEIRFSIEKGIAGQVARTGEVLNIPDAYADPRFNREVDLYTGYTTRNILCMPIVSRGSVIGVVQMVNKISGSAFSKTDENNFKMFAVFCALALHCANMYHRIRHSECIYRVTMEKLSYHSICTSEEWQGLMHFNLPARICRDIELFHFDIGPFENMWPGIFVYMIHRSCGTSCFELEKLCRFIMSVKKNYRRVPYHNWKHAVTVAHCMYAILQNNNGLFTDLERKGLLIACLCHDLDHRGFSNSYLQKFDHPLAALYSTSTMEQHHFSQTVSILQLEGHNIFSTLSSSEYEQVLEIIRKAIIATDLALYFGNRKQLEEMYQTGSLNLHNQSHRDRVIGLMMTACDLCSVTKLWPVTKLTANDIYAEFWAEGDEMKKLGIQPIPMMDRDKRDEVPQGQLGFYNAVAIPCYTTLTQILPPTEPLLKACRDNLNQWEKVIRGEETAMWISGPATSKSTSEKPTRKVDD
Procedure, shortened: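 Male Wistar rats (200 g) dosed s.c. or p.o.; occupancy measured 1 h post-dose. [^3H]-MP-10 (10 μCi/animal) given i.v. 30 min before sacrifice.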

[5] = target: T2, Rat recombinant PDE10A (rPDE10A2) (Rattus norvegicus, UniProt Q9QYJ6); test: In vitro assay PDE10A (SPA, 3H-cAMP); format: biochemical
T2 construct: inferred from the Ni metal chelate purification; made in house; host or cells: Sf9 insect cells (baculovirus)
T2 sequence (Q9QYJ6 1-794): T1 sequence (Q9QYJ6 1-794)
Procedure, shortened: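 Rat PDE10A2 expressed in Sf9 cells and Ni-purified; incubated with 60 nM cAMP plus 0.008 μCi 3H-cAMP in 50 mM Tris pH 7.8, 8.3 mM MgCl2, 1.7 mM EGTA for 60 min at room temperature. Product quantified by scintillation proximity counting; final DMSO 1%.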

[6] = sc, subcutaneous administration, read-out: PDE10 in vivo occupancy ED50 sc
[7] = oral administration, read-out: PDE10 in vivo occupancy ED50 po

Chain of PDE4D3 (Q08499 1-673 isoform Q08499-2): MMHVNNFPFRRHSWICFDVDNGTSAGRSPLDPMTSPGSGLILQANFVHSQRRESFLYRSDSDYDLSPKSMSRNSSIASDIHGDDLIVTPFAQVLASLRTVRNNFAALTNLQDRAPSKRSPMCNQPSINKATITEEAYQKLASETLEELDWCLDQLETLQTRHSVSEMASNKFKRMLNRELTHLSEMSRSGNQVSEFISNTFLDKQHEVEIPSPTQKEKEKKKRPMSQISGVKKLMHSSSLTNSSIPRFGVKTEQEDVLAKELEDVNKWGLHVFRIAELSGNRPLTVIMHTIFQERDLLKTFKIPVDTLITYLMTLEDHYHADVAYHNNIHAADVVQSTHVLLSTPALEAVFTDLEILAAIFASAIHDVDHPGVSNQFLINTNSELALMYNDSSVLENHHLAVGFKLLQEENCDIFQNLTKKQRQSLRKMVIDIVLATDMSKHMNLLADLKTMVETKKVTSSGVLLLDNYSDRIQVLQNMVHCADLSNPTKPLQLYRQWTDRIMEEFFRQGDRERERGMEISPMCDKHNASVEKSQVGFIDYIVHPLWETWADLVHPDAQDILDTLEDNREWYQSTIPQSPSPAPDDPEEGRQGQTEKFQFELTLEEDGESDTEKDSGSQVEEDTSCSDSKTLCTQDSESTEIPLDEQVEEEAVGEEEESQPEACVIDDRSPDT
Chain of PDE1B1 (Q01064 whole entry, species assumed): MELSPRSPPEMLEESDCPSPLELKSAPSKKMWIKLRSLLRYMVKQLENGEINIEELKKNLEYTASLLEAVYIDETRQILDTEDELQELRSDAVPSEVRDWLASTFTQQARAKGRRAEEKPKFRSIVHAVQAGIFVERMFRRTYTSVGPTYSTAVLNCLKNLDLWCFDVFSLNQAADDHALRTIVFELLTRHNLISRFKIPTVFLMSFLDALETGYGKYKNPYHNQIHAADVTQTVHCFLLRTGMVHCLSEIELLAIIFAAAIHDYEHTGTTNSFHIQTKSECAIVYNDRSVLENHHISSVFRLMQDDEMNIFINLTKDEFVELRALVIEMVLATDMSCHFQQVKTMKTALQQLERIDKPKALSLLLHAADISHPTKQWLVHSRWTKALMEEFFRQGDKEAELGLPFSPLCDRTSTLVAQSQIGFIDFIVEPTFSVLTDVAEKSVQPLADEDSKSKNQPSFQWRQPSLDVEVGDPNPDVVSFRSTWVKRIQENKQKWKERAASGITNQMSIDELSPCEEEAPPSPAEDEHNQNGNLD

SMILES | IC50 [1] [µM] | IC50 [2] [µM] | ED50 [3] [mg/kg] | ED50 [4, 6] [mg/kg] | receptor occupancy at 10 mg/kg ([4]; sc) [%] | ED50 [4, 7] [mg/kg] | IC50 ([5]; Table 4 in vitro selectivity, read-out: PDE 10A2 (expressed as pIC50) (converted)) [µM] | IC50 ([5]; pIC50 corresponds to the −log IC50 expressed in mol/L, read-out: PDE10A2 pIC50 (converted)) [µM]
COCCc1ccc(-c2c(C)nc3c(N4CCOCC4)ccnn23)cn1 [compound 1, 3-[6-(2-methoxyethyl)-3-pyridinyl]-2-methyl-8-(4-morpholinyl)-imidazo[1,2-b]pyridazine] | 5.25 | 30.9 | 1.3 | 0.48 | 76 | 1.4 | – | –
COCCOc1ccc(-c2c(C)nc3c(-c4ccncc4)ccnn23)cn1 [compound 21, 3-[6-(2-methoxyethoxy)-3-pyridinyl]-2-methyl-8-(4-pyridinyl)-imidazo[1,2-b]pyridazine] | – | 28.2 | 1.5 | 2.6 | 61 | 14 | 0.102 | 0.102
